Laboratory results reported in US10576102B2, “KOC1-derived peptide and vaccine including same” (ONCOTHERAPY SCIENCE, INC., priority 2014, dated 2020).
Entries after “also recorded” stand apart in the source; their conditions may differ.

Experiments:
[1] = tested on: COS7 cells transfected with both KOC1 and HLA-A*1101; experiment: Specific CTL activity against target cells expressing KOC1 and HLA-A*1101; format: cell-based, African green monkey; settings: listed as KOC1-A11-10-14
Procedure: (§1) Specifically, peptide-pulsed C1R-A11 (1×10^4 cells/well) was prepared as the stimulator cell. The induced CTLs, i.e., CTL lines and CTL clones, were used as the responder cell. The IFN-gamma ELISPOT assay and IFN-gamma ELISA were performed according to the manufacturer's manual.
A cDNA encoding the open-reading frame of a target gene or HLA-A*1101 was amplified by PCR. The PCR-amplified product was cloned into an expression vector. Either or both of the target gene-expressing vector and the HLA-A*1101-expressing vector were transfected into […], which is a cell line negative for the target gene and HLA, using Lipofectamine 2000 (Invitrogen) following the manufacturer's recommended protocol. Two days after transfection, the transfected cells were harvested using versene (Invitrogen), and used as the target cell for CTL activity assay (5×10^4 cells/well).
The CTL clone established against KOC1-A11-10-14 (SEQ ID NO: 32) was investigated for its ability to recognize target cells expressing KOC1 and the HLA-A*1101 molecule. COS7 cells transfected with both full-length KOC1 and the HLA-A*1101 gene (a specific model of target cells expressing KOC1 and the HLA-A*1101 gene) were prepared as the target cell. COS7 cells transfected with either full-length KOC1 or HLA-A*1101 were prepared as the control.

peptide-pulsed C1R-A11 [2] = experiment: IFN-gamma ELISA of CTL lines and CTL clones (HLA-A*1101); format: cell-based, human
Procedure: (§2) CTLs were propagated in culture using methods similar to those disclosed by Riddell et al. (Walter E A et al., N Engl J Med 1995, 333(16): 1038-44; Riddell S R et al., Nat Med 1996, 2(2): 216-23). The CTLs were co-cultured in a total of 25 ml AIM-V medium containing 5% AS (AIM-V/5% AS) and 40 ng/ml anti-CD3 antibody with two types of Mitomycin C-treated human B lymphoblastoid cell lines at 5×10^6 cells/flask. One day after beginning of the culturing, 120 IU/ml IL-2 was added to the culture. On days 5, 8 and 11, a fresh AIM-V/5% AS medium containing 30 IU/ml IL-2 was added to the culture (Tanaka H et al., Br J Cancer 2001, 84(1): 94-9; Umano Y et al., Br J Cancer 2001, 84(8): 1052-7; Uchida N et al., Clin Cancer Res 2004, 10(24): 8577-86; Suda T et al., Cancer Sci 2006, 97(5): 411-9; Watanabe T et al., Cancer Sci 2005, 96(8): 498-506).
Dilution of CTLs was carried out to make 0.3, 1 and 3 cells/well in 96 round-bottomed microtiter plates (Nalge Nunc International). The CTLs were co-cultured with two types of Mitomycin C-treated human B lymphoblastoid cell lines at 1×10^4 cells/well in a total of 150 micro-1/well AIM-V/5% AS medium with 30 ng/ml anti-CD3 antibody and 125 IU/ml IL-2. Ten days later, IL-2 was added to the medium at 50 micro-1/well to reach a final concentration of 125 IU/ml. On day 14, the CTL activity was tested, and the CTL clones were propagated using the same method as described above (Uchida N et al., Clin Cancer Res 2004, 10(24): 8577-86; Suda T et al., Cancer Sci 2006, 97(5): 411-9; Watanabe T et al., Cancer Sci 2005, 96(8): 498-506).
as §1

peptide-pulsed C1R-A11 [3] = experiment: In vitro CTL induction, IFN-gamma ELISPOT assay (HLA-A*1101); format: cell-based, human; settings: CTLs induced with peptide-pulsed DCs from HLA-A*1101-positive volunteers; day 21; vs peptide-pulsed C1R-A11, compared with unpulsed control
Procedure: (§3) C1R (C1R-A11) that stably expresses HLA-A*1101 was used as a stimulator cell. A cDNA encoding the open-reading frame of HLA-A*1101 was amplified by PCR and cloned into an expression vector. C1R cells were transfected with the expression vector, and then selected using G418 (Invitrogen) for two weeks. The G418-selected cells were seeded into wells containing G418-added culture medium in a 96-well plate, and further cultured for 30 days. The exogenous HLA-A*1101 expression in C1R cells was verified by flow cytometric analysis.
(§4) Monocyte-derived dendritic cells (DCs) were used as the antigen-presenting cell to induce a cytotoxic T lymphocyte (CTL) response against peptides presented on human leukocyte antigens (HLAs). As described in the other sections, DCs were generated in vitro (Nakahara S et al., Cancer Res 2003, 63(14): 4112-8). Specifically, peripheral-blood mononuclear cells isolated from healthy volunteers (HLA-A*1101-positive) with the Ficoll-Paque plus solution (Pharmacia) were separated by attaching to plastic tissue culture dishes (Becton Dickinson) and concentrated as a monocyte fraction. The monocyte-concentrated population was cultured in the presence of 1000 IU/ml granulocyte macrophage colony-stimulating factor (R&D System) and 1000 IU/ml interleukin(IL)-4 (R&D System) in an AIM-V medium (Invitrogen) containing 2% heat-inactivated autologous serum (AS). After seven days of culturing, the cytokine-induced DCs were pulsed with 20 micro-g/ml each of the synthesized peptides in an AIM-V medium at 37 degrees C. for three hours in the presence of 3 micro-g/ml beta 2-microglobulin. The generated cells appeared to express on their cell surface DC-associated molecules such as CD80, CD83, CD86 and HLA class II (data not shown). Next, these peptide-pulsed DCs were inactivated, by X-ray irradiation (20 Gy), and mixed in a 1:20 ratio with autologous CD8^+ T cells obtained by positive selection using the CD8 Positive Isolation Kit (Dynal). These culture products were seeded in a 48-well plate (Corning). Each well was made to contain 1.5×10^4 peptide-pulsed DCs, 3×10^5 CD8^+ T cells and 10 ng/ml IL-7 (R&D System) in 0.5 ml of the AIM-V/2% AS medium. Three days later, these culture products were added with a final concentration of 20 IU/ml IL-2 (CHIRON). On day 7 and day 14, T cells were further stimulated with peptide-pulsed autologous DCs. The DCs were prepared every time by the same method as above. On day 21, after the third peptide stimulation, CTLs were examined against the peptide-pulsed C1R-A11 by a human interferon (IFN)-gamma enzyme-linked immunospot (ELISPOT) assay (Tanaka H et al., Br J Cancer 2001, 84(1): 94-9; Umano Y et al., Br J Cancer 2001, 84(8): 1052-7; Uchida N et al., Clin Cancer Res 2004, 10(24): 8577-86; Suda T et al., Cancer Sci 2006, 97(5): 411-9; Watanabe T et al., Cancer Sci 2005, 96(8): 498-506).
as §1

peptide-pulsed C1R-A01 [4] = experiment: IFN-gamma ELISA of CTL lines and CTL clone (HLA-A*0101); format: cell-based, human; settings: CTL lines; target cells pulsed with the peptide vs not pulsed; C1R-A01
Procedure: as §2, with “AS” for “AS (AIM-V/5% AS)”, “cells.” for “cells/flask.”
CTLs were seeded to make 1 or 10 cells/well in 96 round-bottomed microtiter plates (Nalge Nunc International). The CTLs were co-cultured with two types of Mitomycin C-treated human B lymphoblastoid cell lines at 1×10^4 cells in a total of 150 micro-1/well 5% AS-containing AIM-V medium with 30 ng/ml anti-CD3 antibody and 125 IU/ml IL-2. Ten days later, 50 micro-1 of IL-2 was added to the medium to reach a final IL-2 concentration of 125 IU/ml. On day 14, the CTL activity was tested, and the CTL clones were propagated using the same method as described above (Uchida N et al., Clin Cancer Res 2004, 10(24): 8577-86; Suda T et al., Cancer Sci 2006, 97(5): 411-9; Watanabe T et al., Cancer Sci 2005, 96(8): 498-506).
(§5) Specifically, peptide-pulsed C1R-A01 (1×10^4 cells/well) was prepared as the stimulator cell. The induced CTLs, i.e., CTL lines and CTL clones, were used as the responder cell. The IFN-gamma ELISPOT assay and IFN-gamma ELISA were performed according to the manufacturer's manual.

peptide-pulsed C1R-A01 [5] = experiment: In vitro CTL induction, IFN-gamma ELISPOT assay (HLA-A*0101); format: cell-based, human; settings: CTLs induced with peptide-pulsed DCs from HLA-A*0101-positive volunteers; day 21; vs peptide-pulsed C1R-A01, compared with unpulsed control
Procedure: as §3, with “(C1R-A01)” for “(C1R-A11)”, “HLA-A*0101” for “HLA-A*1101”
as §4, with “(HLA-A*0101-positive)” for “(HLA-A*1101-positive)”, “2-microglobulin.” for “2-microglobulin. The generated cells appeared to express on their cell surface DC-associated molecules such as CD80, CD83, CD86 and HLA class II (data not shown).”, “inactivated” for “inactivated,”, “CTL activities” for “CTLs”, “C1R-A01 cells” for “C1R-A11 by a human interferon (IFN)-gamma enzyme-linked immunospot (ELISPOT) assay”
as §5

Q: Which results are given for “APSDLESIFK (a peptide derived from KOC1) [SEQ ID NO: 32]”?
A: specific CTL activity of CTL clone against target cells expressing KOC1 and HLA-A*1101 ([1]; COS7 transfected with both full-length KOC1 and HLA-A*1101): specific CTL activity; also recorded: potent CTL activity; specific CTL activity of CTL clone against control cells ([1]; COS7 transfected with either full-length KOC1 or HLA-A*1101): a significant specific CTL activity was not shown; also recorded: a significant specific CTL activity was not detected; IFN-gamma production of CTL clones, ELISA (peptide-pulsed C1R-A11 [2]; CTL clones by limiting dilution, peptide-pulsed C1R-A11, listed as KOC1-A11-10-14): Potent IFN-gamma production; IFN-gamma production of CTL lines, ELISA (peptide-pulsed C1R-A11 [2]; CTL lines, target cells pulsed with the peptide vs not pulsed, C1R-A11): potent IFN-gamma production; peptide-specific CTL activity (IFN-gamma production), ELISPOT (peptide-pulsed C1R-A11 [3]): potent IFN-gamma production

Q: Which “IFN-gamma production of CTL lines, ELISA” value (peptide-pulsed C1R-A01 [4]) does the source give for “ETAVVNVTY (a peptide derived from KOC1) [SEQ ID NO: 87]” here?
A: potent IFN-gamma production

Q: And the “peptide-specific CTL activity (IFN-gamma production), ELISPOT” value (peptide-pulsed C1R-A01 [5])?
A: potent IFN-gamma production
